In US11834453B2, “Substituted pyrimido[5,4-d]pyrimidines as HER2 inhibitors” (Array BioPharma Inc., priority 2020, dated 2023):
Read-outs that look alike come from different tables or passages of the source.

Legend:
[1] = target: ErbB2 insYVMA (HER2-YVMA, SEQ ID NO: 2) (Homo sapiens, UniProt P04626, INS775YVMA/P1170A); experiment: biochemical; settings: ErbB2 insYVMA enzyme assay
ErbB2 WT = ErbB2 WT (Homo sapiens (Human), UniProt P04626); experiment: ErbB enzyme assay (CisBio HTRF KinEASE-TK), Assay 2; assay type: biochemical
Sequence of ErbB2 WT (P04626 23-1255): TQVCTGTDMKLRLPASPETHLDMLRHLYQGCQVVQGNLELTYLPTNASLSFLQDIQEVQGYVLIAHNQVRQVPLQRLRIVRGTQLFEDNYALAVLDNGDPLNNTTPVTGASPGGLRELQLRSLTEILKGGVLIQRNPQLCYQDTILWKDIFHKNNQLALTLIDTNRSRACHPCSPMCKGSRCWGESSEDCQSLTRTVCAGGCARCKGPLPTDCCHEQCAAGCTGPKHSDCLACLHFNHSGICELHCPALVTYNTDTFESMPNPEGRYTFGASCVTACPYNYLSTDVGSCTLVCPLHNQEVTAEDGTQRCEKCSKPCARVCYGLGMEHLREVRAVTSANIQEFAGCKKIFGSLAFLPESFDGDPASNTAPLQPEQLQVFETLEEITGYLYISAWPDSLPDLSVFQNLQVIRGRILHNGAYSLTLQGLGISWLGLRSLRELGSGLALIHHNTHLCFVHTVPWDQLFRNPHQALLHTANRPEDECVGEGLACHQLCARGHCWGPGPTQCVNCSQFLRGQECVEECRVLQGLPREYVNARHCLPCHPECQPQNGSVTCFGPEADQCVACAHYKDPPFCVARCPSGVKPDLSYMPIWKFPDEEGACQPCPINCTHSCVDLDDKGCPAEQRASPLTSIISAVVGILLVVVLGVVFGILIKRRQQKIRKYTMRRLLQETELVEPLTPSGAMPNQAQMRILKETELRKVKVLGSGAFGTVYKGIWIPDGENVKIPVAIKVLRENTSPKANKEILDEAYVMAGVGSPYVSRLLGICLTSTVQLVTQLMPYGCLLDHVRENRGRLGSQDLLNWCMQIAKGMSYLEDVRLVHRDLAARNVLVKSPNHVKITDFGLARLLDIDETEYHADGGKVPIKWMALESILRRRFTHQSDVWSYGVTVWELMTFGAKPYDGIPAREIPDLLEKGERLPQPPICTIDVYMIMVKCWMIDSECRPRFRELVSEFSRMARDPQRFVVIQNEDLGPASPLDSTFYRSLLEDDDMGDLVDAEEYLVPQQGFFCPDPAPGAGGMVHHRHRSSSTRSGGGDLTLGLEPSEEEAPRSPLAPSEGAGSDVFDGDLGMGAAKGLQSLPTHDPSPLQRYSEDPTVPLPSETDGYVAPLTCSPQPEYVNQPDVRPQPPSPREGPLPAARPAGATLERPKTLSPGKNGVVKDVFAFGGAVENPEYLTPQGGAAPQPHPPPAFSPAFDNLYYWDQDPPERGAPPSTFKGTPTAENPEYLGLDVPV
In short: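 ErbB2 phosphorylates 250 nM biotin-TK substrate at 1 mM ATP in 25 mM HEPES pH 7.4, 10 mM MgCl2, 0.01% Triton X-100 and 2% DMSO, for 30 min at 22 °C. Product is detected by HTRF with Sa-XL665 and TK-Ab-Cryptate. Percent of control is set by DMSO-only wells and pre-quenched wells.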

EGFR = EGFR (Homo sapiens (Human), UniProt P00533); experiment: ErbB enzyme assay (CisBio HTRF KinEASE-TK), Assay 3; assay type: biochemical
In short: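 Inhibition is measured as reduced peptide phosphorylation by HTRF KinEASE-TK at 1 mM ATP and 250 nM substrate, 30 min at 22 °C. Values are IC50s from a 4-parameter logistic fit.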

[2] = target: ErbB2 with Exon 20 YVMA insertion (HER2-YVMA) (Homo sapiens (Human), UniProt P04626, INS775YVMA); experiment: Cellular phosphorylation assay, constitutive ErbB2 phosphorylation (Y1196) in engineered NIH 3T3 cells, Assay 4; assay type: cell-based
Sequence of ErbB2 with Exon 20 YVMA insertion (HER2-YVMA) (P04626 other isoform, or with tags, fused parts or gaps ins YVMA behind 775): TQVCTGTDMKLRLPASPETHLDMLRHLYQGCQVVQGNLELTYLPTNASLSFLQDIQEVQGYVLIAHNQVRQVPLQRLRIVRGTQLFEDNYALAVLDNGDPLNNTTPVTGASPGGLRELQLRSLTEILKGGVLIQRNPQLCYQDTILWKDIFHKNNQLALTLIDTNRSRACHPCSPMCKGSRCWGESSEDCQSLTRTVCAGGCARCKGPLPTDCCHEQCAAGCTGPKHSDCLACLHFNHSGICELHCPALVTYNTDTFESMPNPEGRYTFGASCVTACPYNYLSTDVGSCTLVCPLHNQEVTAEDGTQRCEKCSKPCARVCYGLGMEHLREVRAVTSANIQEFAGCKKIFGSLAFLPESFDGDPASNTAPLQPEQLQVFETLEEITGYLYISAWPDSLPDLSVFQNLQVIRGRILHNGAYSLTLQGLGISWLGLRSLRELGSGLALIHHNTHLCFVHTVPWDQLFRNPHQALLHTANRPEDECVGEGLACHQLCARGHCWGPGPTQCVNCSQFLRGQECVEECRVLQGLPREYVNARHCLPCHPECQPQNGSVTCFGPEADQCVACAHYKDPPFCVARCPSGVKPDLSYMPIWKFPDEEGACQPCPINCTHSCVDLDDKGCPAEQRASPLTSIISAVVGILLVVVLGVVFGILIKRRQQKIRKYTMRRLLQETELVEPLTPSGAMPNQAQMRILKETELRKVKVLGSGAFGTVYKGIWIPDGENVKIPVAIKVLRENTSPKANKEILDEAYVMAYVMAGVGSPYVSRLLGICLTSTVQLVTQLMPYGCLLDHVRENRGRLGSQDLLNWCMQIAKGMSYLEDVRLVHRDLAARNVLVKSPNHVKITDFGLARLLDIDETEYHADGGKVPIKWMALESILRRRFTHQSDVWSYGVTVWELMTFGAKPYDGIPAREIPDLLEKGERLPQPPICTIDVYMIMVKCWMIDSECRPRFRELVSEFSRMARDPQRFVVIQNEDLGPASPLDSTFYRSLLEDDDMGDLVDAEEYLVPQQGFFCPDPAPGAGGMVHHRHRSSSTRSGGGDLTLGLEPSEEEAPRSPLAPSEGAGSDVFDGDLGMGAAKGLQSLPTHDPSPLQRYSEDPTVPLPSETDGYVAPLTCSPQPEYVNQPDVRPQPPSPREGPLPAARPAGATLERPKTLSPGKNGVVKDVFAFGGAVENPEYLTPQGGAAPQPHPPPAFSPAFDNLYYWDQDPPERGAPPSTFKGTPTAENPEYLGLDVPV
In short: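 Engineered NIH 3T3 cells expressing HER2-YVMA treated with compounds 1 h at 37 °C, then formaldehyde-fixed and methanol-permeabilized. pErbB2 Y1196 detected by in-cell infrared immunofluorescence, normalized to GAPDH. IC50 from the normalized curves.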

EGFR wild type (EGFR WT) = EGFR wild type (EGFR WT) (Homo sapiens (Human), UniProt P00533); experiment: Cellular phosphorylation assay, EGF-stimulated EGFR phosphorylation in engineered NIH 3T3 cells, Phospho-EGFR DuoSet IC ELISA, Assay 5; assay type: cell-based
In short: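 NIH 3T3 cells expressing EGFR WT (20,000/well, attached overnight) were exposed to serially diluted compound for 1 h at 37 °C, then stimulated with 100 ng/ml rEGF for 10 min. Phospho-EGFR in lysates measured by sandwich ELISA optical density; IC50 from curves.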

MDR1 (P-gp) = MDR1 (P-gp) (Homo sapiens (Human), UniProt P08183); experiment: MDR1 transfected MDCKII canine Mdr1 knockout permeability/efflux, Assay 7; settings: for efflux ratio at 2 h, 1 μM: dog, MDCK-MDR1
BCRP = BCRP (Homo sapiens (Human), UniProt Q9UNQ0); experiment: BCRP transfected MDCKII canine Mdr1 knockout permeability/efflux, Assay 9; settings: for efflux ratio at 2 h, 1 μM: dog
Sequence of BCRP (Q9UNQ0 whole entry): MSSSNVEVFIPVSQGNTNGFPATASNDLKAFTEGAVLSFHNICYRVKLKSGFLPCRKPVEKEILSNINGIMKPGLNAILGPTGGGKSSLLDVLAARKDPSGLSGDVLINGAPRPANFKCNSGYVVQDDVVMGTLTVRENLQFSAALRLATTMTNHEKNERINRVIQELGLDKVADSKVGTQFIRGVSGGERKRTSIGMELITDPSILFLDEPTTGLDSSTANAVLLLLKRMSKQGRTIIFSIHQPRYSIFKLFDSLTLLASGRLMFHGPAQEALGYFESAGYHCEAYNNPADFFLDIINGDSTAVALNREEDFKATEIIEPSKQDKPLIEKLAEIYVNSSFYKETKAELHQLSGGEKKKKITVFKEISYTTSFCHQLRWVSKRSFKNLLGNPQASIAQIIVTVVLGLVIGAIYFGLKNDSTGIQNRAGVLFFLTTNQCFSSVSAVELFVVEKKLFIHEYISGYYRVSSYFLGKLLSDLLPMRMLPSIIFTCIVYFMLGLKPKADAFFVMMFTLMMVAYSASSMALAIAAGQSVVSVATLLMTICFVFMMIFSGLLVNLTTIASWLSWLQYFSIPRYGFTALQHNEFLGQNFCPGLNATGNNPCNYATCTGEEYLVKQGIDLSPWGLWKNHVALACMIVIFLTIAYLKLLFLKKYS
Description: BCRP transfected MDCKII cells (Assay 8) and BCRP transfected MDCKII canine Mdr1 knockout cells (Assay 9) were cultured and plated according to manufacturer's recommendations.
Both positive and negative controls were used to assess functionality of P-gp or BCRP efflux in the assays. Stock solutions for assay controls and the test article were prepared in DMSO for final test concentration of 1 μM. Final organic concentration in the assay was 1%. All dosing solutions contained 10 μM lucifer yellow to monitor MDCKII cell monolayer integrity.
For the apical to basolateral determination (A to B), 75 μL of the test article in transport buffer were added to the apical side of the individual transwells and 250 μL of basolateral media, without compound or lucifer yellow, were added to each well. For the basolateral to apical determination (B to A), 250 μL of test article in transport buffer were added to each well and 75 μL transport buffer, without compound or lucifer yellow, were added to each transwell. All tests were performed in triplicate, and each compound was tested for both apical to basolateral and basolateral to apical transport. The plates were incubated for 2 hours on a Lab-Line Instruments Titer Orbital Shaker (VWR, West Chester, PA) at 50 rpm and 37° C. with 5% CO2. All culture plates were removed from the incubator, 50 μL of media were removed from the apical and basolateral portion of each well, and added to 150 μL of 1 μM labetalol in 2:1 acetonitrile (ACN): H2O, v/v.
The plates were read using a Molecular Devices (Sunnyvale, CA) Gemini Fluorometer to evaluate the lucifer yellow concentrations at excitation/emission wavelengths of 425/535 nm. […] The plates were sealed, and the contents of each well analyzed by LC MS/MS. The compound concentrations were determined from the ratio of the peak areas of the compound to the internal standard (labetalol) in comparison to the dosing solution.
A MDS Sciex API 4000 (Applied Biosystems, Foster City, CA) mass spectrometer was used for detection of the analytes in the ion spray positive mode. Analyte responses were measured by multiple reaction monitoring (“MRM”) of transitions unique to each compound (the protonated precursor ion and selected product ions for each test article and m/z 329 to m/z 162 for labetalol, the internal standard.
The total run time, including re-equilibration, for a single injection was 1.2 minutes. […] The total run time, including re-equilibration, for a single injection was 0.61 minutes.
An efflux ratio is calculated from the mean apical to basolateral (A-B) Papp data and basolateral to apical (B-A) Papp data: Efflux ratio=Papp(B−A)/Papp(A−B)

[3] = Assay 9 Pe Ratio, efflux ratio Papp(B-A)/Papp(A-B), BCRP transfected MDCKII canine Mdr1 knockout

Sequence of ErbB2 insYVMA (HER2-YVMA, SEQ ID NO: 2) (P04626 with tags, fused parts or gaps INS775YVMA/P1170A limits assumed): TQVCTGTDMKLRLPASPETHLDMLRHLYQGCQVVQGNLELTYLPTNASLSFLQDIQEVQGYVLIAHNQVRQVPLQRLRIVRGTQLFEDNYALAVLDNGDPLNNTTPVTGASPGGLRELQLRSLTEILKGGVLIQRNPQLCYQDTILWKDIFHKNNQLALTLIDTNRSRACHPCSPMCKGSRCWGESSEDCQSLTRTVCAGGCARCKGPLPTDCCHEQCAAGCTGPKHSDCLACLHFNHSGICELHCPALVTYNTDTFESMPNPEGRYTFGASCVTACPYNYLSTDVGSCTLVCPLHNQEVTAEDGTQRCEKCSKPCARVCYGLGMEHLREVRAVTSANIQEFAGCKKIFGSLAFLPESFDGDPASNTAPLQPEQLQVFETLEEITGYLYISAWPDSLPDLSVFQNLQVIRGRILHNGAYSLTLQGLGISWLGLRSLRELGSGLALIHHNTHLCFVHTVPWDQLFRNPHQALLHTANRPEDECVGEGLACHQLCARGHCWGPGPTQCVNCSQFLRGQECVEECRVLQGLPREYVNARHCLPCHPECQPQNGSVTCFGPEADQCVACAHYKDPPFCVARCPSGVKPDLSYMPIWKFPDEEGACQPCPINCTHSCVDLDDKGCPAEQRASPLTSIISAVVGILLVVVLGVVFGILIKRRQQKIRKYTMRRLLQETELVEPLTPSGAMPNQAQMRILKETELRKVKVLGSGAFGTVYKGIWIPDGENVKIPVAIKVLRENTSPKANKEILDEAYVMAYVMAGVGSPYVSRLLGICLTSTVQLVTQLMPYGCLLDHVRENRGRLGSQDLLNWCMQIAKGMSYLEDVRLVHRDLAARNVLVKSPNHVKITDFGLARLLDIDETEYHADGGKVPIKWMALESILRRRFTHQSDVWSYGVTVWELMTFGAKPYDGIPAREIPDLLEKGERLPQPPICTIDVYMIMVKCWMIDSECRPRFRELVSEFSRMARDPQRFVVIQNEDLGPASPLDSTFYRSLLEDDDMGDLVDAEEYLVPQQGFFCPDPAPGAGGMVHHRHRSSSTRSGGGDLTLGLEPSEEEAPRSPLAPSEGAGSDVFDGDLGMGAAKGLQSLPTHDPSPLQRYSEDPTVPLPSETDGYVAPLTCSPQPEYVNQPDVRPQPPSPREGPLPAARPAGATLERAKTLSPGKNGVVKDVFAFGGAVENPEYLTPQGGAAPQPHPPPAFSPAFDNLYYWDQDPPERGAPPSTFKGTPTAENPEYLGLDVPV

| SMILES | IC50 ([1]; Assay 1 IC50 (nM)) | IC50 (ErbB2 WT) | IC50 (EGFR) | IC50 [2] | IC50 (EGFR wild type (EGFR WT)) | efflux ratio at 2 h, 1 μM (MDR1 (P-gp)) | efflux ratio at 2 h, 1 μM (BCRP) | IC50 ([1]; read-out: Assay 1 IC50) | Assay 7 Pe Ratio (MDR1 (P-gp); efflux ratio Papp(B-A)/Papp(A-B), MDR1 transfected MDCKII canine Mdr1 knockout) | Assay 9 Pe Ratio (BCRP; efflux ratio Papp(B-A)/Papp(A-B), BCRP transfected MDCKII canine Mdr1 knockout) | efflux ratio at 2 h, 1 μM (BCRP; [3]) |
| --- | --- | --- | --- | --- | --- | --- | --- | --- | --- | --- | --- |
| Cn1cnc2cc(Oc3ccc(Nc4ncnc5cnc(N6CCC67COC7)nc45)cc3Cl)ccc21.O=C(O)C(F)(F)F [Example 145, N-(3-chloro-4-((1-methyl-1H-benzo[d]imidazol-5-yl)oxy)phenyl)-6-(6-oxa-1-azaspiro[3.3]heptan-1-yl)pyrimido[5,4-d]pyrimidin-4-amine] | 19.3 nM | 19.6 nM | 896 nM | 20.2 nM | ≥ 5000 nM | 0.7 | 2.1 | – | – | – | – |
| Cc1cc(Nc2ncnc3cnc(N4C[C@H]5C[C@@H]4C[C@@H]5O)nc23)ccc1Oc1ccc2c(c1)ncn2C [Example 157, (1R,4R,5S)-2-(8-((3-methyl-4-((1-methyl-1H-benzo[d]imidazol-5-yl)oxy)phenyl)amino)pyrimido[5,4-d]pyrimidin-2-yl)-2-azabicyclo[2.2.1]heptan-5-ol] | – | 56.8 nM | ≥ 10000 nM | 27.8 nM | ≥ 5000 nM | – | – | 33.5 nM | 2.1 | 21.0 | – |
| Cc1cc(Nc2ncnc3cnc(N(C)C4COC4)nc23)ccc1Oc1ccc2c(c1)ncn2C [Example 175, N2-methyl-N8-(3-methyl-4-((1-methyl-1H-benzo[d]imidazol-5-yl)oxy)phenyl)-N2-(oxetan-3-yl)pyrimido[5,4-d]pyrimidine-2,8-diamine] | – | 6.3 nM | 6510 nM | 13.9 nM | ≥ 5000 nM | 1.4 | – | 4.2 nM | – | – | 1.5 |
| Cc1cc(Nc2ncnc3cnc(N4CC5(C4)CC(O)(C(F)F)C5)nc23)ccc1Oc1ccc2c(c1)ncn2C [Example 210, 6-(difluoromethyl)-2-(8-((3-methyl-4-((1-methyl-1H-benzo[d]imidazol-5-yl)oxy)phenyl)amino)pyrimido[5,4-d]pyrimidin-2-yl)-2-azaspiro[3.3]heptan-6-ol] | – | 30.2 nM | ≥ 10000 nM | 27 nM | ≥ 5000 nM | 1.7 | 36.8 | 40.5 nM | – | – | – |
| Cc1cc(Nc2ncnc3cnc(N(C)[C@H]4C[C@H](O)C4)nc23)ccc1Oc1ccc2c(c1)ncn2C [Example 186, (1r,3r)-3-(methyl(8-((3-methyl-4-((1-methyl-1H-benzo[d]imidazol-5-yl)oxy)phenyl)amino)pyrimido[5,4-d]pyrimidin-2-yl)amino)cyclobutan-1-ol] | – | 3.7 nM | 592 nM | 4.1 nM | ≥ 5000 nM | 1.4 | – | 5.7 nM | – | – | 24.2 |
| Clc1cc(Nc2ncnc3cnc(N4CCC45COC5)nc23)ccc1Oc1ccn2ncnc2c1 [Example 132, N-(4-([1,2,4]triazolo[1,5-a]pyridin-7-yloxy)-3-chlorophenyl)-6-(6-oxa-1-azaspiro[3.3]heptan-1-yl)pyrimido[5,4-d]pyrimidin-4-amine] | – | 5.6 nM | 801 nM | 19.9 nM | ≥ 5000 nM | 1.1 | 1.8 | 5.8 nM | – | – | – |
| Cc1cc(Nc2ncnc3cnc(N4CCC(O)(C(F)F)CC4)nc23)ccc1Oc1ccc2c(c1)ncn2C [Example 168, 4-(difluoromethyl)-1-(8-((3-methyl-4-((1-methyl-1H-benzo[d]imidazol-5-yl)oxy)phenyl)amino)pyrimido[5,4-d]pyrimidin-2-yl)piperidin-4-ol] | – | 113 nM | 3680 nM | 6.5 nM | ≥ 5000 nM | 2 | – | 39.1 nM | – | – | 16.7 |
| Cc1cc(Nc2ncnc3cnc(N(C)[C@@H]4CCC[C@H]4O)nc23)ccc1Oc1ccc2c(c1)ncn2C [Example 193, (1R,2R)-2-(methyl(8-((3-methyl-4-((1-methyl-1H-benzo[d]imidazol-5-yl)oxy)phenyl)amino)pyrimido[5,4-d]pyrimidin-2-yl)amino)cyclopentan-1-ol] | – | 31 nM | 4570 nM | 45.6 nM | ≥ 5000 nM | 1.6 | – | 21.2 nM | – | – | 7 |
| CO[C@@H]1CN(c2ncc3ncnc(Nc4ccc(Oc5ccc6c(c5)ncn6C)c(C)c4)c3n2)C[C@@H]1O [Example 194, (3S,4R)-4-methoxy-1-(8-((3-methyl-4-((1-methyl-1H-benzo[d]imidazol-5-yl)oxy)phenyl)amino)pyrimido[5,4-d]pyrimidin-2-yl)pyrrolidin-3-ol] | – | 23.5 nM | 8730 nM | 44.5 nM | ≥ 5000 nM | 1.9 | – | 17.8 nM | – | – | 32.4 |
| FC(F)(F)[C@@H]1CN(c2ncc3ncnc(Nc4ccc(Oc5ccn6ncnc6c5)c(Cl)c4)c3n2)CCN1 [Example 130, (S)—N-(4-([1,2,4]triazolo[1,5-a]pyridin-7-yloxy)-3-chlorophenyl)-6-(3-(trifluoromethyl)piperazin-1-yl)pyrimido[5,4-d]pyrimidin-4-amine] | – | 36.3 nM | 2560 nM | 43.3 nM | ≥ 5000 nM | 1.3 | – | 41.7 nM | – | – | 1 |
| Cc1cc(Nc2ncnc3cnc(N(C)CC4COC4)nc23)ccc1Oc1ccc2c(c1)ncn2C [Example 402] | – | 14.9 nM | ≥ 10000 nM | 14.9 nM | ≥ 5000 nM | 1.4 | – | 39.7 nM | – | – | 2.3 |
| Cc1cc(Nc2ncnc3cnc(N4C[C@H](O)C(F)(F)C4)nc23)ccc1Oc1ccc2c(c1)ncn2C [Example 170, (S)-4,4-difluoro-1-(8-((3-methyl-4-((1-methyl-1H-benzo[d]imidazol-5-yl)oxy)phenyl)amino)pyrimido[5,4-d]pyrimidin-2-yl)pyrrolidin-3-ol] | – | 28.6 nM | ≥ 10000 nM | 3.4 nM | ≥ 5000 nM | 2.1 | – | 20.1 nM | – | – | 36 |
| Cc1cc(Nc2ncnc3cnc(N(C)[C@H]4CCOC4)nc23)ccc1Oc1ccc2c(c1)ncn2C [Example 131, (S)—N2-methyl-N8-(3-methyl-4-((1-methyl-1H-benzo[d]imidazol-5-yl)oxy)phenyl)-N2-(tetrahydrofuran-3-yl)pyrimido[5,4-d]pyrimidine-2,8-diamine] | – | 20 nM | 3270 nM | 36.3 nM | ≥ 5000 nM | 1.6 | – | 21 nM | – | – | 1.4 |
| CN(c1ncc2ncnc(Nc3ccc(Oc4ccc5c(c4)ncn5C)c(Cl)c3)c2n1)C1COC1 [Example 123, N8-(3-chloro-4-((1-methyl-1H-benzo[d]imidazol-5-yl)oxy)phenyl)-N2-methyl-N2-(oxetan-3-yl)pyrimido[5,4-d]pyrimidine-2,8-diamine] | – | 118 nM | ≥ 10000 nM | 13.2 nM | ≥ 5000 nM | 1.6 | – | 26.5 nM | – | – | 2.4 |
| Cc1cc(Nc2ncnc3cnc(N4C[C@@H]5COC[C@@H]54)nc23)ccc1Oc1ccc2c(c1)ncn2C [Example 348] | – | 69.1 nM | ≥ 10000 nM | 14.5 nM | ≥ 5000 nM | 1.4 | – | 40.1 nM | – | – | 5 |
